The values below come from ChEMBL document CHEMBL3507680, “University of Dundee, Gates Library screen for HepG2 cell viability”.

The nature of this data set: Human HepG2 cell viability assay in 384 well format. Details: dose 125 nL, time 70.5 hour; cytotoxicity at 70.5 h: concentration not given beside the values. The class given is toxicity, cell-based. The conditions noted are these: HepG2 cells, read-out: Inhibition.
`Oc1cccc(CNCC2CCCO2)c1` (centres undefined): the cytotoxicity at 70.5 h was 10.4%.

As for `Cc1ccc(C(=O)NCCS(=O)(=O)N2CCSCC2)n1C`, the cytotoxicity at 70.5 h is -2.8%.

Take `Cc1ccoc1C(=O)NCCS(=O)(=O)N1CCSCC1`: the cytotoxicity at 70.5 h worked out at 5.89%.

Consider `CCc1ccc(C(COC)NC(=O)c2ccc(NC(C)=O)cc2)o1` (centres undefined), for which the cytotoxicity at 70.5 h is -8.16%.

Take `CCc1ccc(C(COC)NC(=O)c2ccc(C(N)=O)cc2)o1` (centres undefined): the cytotoxicity at 70.5 h was found to be 7.28%.

Regarding `COCCC1(CNC(=O)Nc2ccc(-n3ccnn3)cc2)CCC1`, the cytotoxicity at 70.5 h was 4.76%.

Consider `CC1(C)CN(C(=O)c2occc2COc2cccc(C#N)c2)CCO1`, for which the cytotoxicity at 70.5 h came out at 3.19%.

In the case of `Cc1nc(CN2CCc3c(nc(C4CC4)n3C)C2)nc2ccccc12`, the cytotoxicity at 70.5 h was -5.35%.

For `Cc1ccc(CN(Cc2cc(C)no2)C2CC2)cc1`, the cytotoxicity at 70.5 h was -3.87%.

Turning to `CC(CNC(=O)c1cnccn1)Oc1ccc(F)cc1` (centres undefined), the cytotoxicity at 70.5 h was -8.73%.

With `CC(NC(=O)CN1CCN(c2cccc(Cl)c2)CC1)c1ccco1` (centres undefined), the cytotoxicity at 70.5 h is -5.94%.

Consider `N#Cc1csc(CNCCOc2ccc(Cl)cn2)c1`, for which the cytotoxicity at 70.5 h was -5.85%.

Consider `CCCN(Cc1ccccc1O)S(=O)(=O)C(C)CC` (centres undefined), for which the cytotoxicity at 70.5 h is -5.52%.

Regarding `COCCSCC(=O)NCc1ccc(N(C)C)cc1`, the cytotoxicity at 70.5 h is -0.963%.

As for `CC(=O)c1cc(C(=O)N2CCN(C)Cc3ccccc32)n(C)c1`, the cytotoxicity at 70.5 h was -3%.

Regarding `Cc1nc(CN2CCCN(Cc3nc4ccccc4o3)CC2)no1`, the cytotoxicity at 70.5 h was -8.61%.

Turning to `CC(c1ccc(S(N)(=O)=O)cc1)N(C)C(=O)c1ccccc1I` (centres undefined), the cytotoxicity at 70.5 h is -5.97%.

For the compound `CCc1ccc(S(=O)(=O)Nc2ccn(CC(=O)OC)n2)cc1`, the cytotoxicity at 70.5 h is -4.63%.

With `Cc1ccc(N(CC(=O)N2CCCCC2)C(=O)C2CCCO2)cc1` (centres undefined), the cytotoxicity at 70.5 h is -1.14%.

`CC(C)COCCNC(=O)NC1CCCN(c2cnn(C)c2)C1` (centres undefined): the cytotoxicity at 70.5 h is -0.131%.

Regarding `O=C(NCCOc1ccc(Cl)cn1)Nc1cccnc1`, the cytotoxicity at 70.5 h is -0.774%.

Consider `O=C(NCCOc1ccc(Cl)cn1)Nc1ccccn1`, for which the cytotoxicity at 70.5 h was 0.428%.

As to `O=C(c1cnc(-c2ccco2)s1)N1CCOc2ncccc21`, the cytotoxicity at 70.5 h was -1.16%.

As for `CCCc1ncc(C(=O)N2CCOc3ncccc32)s1`, the cytotoxicity at 70.5 h is -2.81%.

As to `CN1CCOC(CNCCOc2cccc(C#N)c2)C1` (centres undefined), the cytotoxicity at 70.5 h is -7.36%.

For the compound `CC(C)(C)OCCN1CCCC1c1nc(Cc2ccc(F)cc2)no1` (centres undefined), the cytotoxicity at 70.5 h turned out to be 11.6%.

On to `Cc1nc2n(n1)CC(NCCc1cccs1)CC2` (centres undefined), for which the cytotoxicity at 70.5 h is 0.958%.

On to `Cc1nccn1-c1ccc(C(C)NCCC(C)C)cc1` (centres undefined), for which the cytotoxicity at 70.5 h is -1.85%.

In the case of `CCc1nc(C)c(C(C)N(C)CCc2ccncc2)s1` (centres undefined), the cytotoxicity at 70.5 h came to 0.87%.

`O=C(Cc1ccc(F)cc1)NCCNS(=O)(=O)c1ccc(F)c(F)c1`: the cytotoxicity at 70.5 h is -1.6%.

With `O=C(C1CC1)N1CCC(c2nc(-c3ccccc3)n[nH]2)CC1`, the cytotoxicity at 70.5 h is -1.09%.

Take `CN(Cc1ccncc1)C(=O)Nc1cnn(CC(N)=O)c1`: the cytotoxicity at 70.5 h is -4.03%.

Consider `Fc1cc(CNCCn2cccn2)ccc1-n1cncn1`, for which the cytotoxicity at 70.5 h worked out at 1.79%.

`COc1ccc(F)cc1C(=O)N1CCn2c(nnc2C(F)(F)F)C1`: the cytotoxicity at 70.5 h was -5.57%.

Consider `O=S(=O)(c1cc2ccccc2o1)N1CCCC1`, for which the cytotoxicity at 70.5 h stood at 4.69%.

Take `O=C(NCCNc1ccccn1)NC1CCOC2(CCCCC2)C1` (centres undefined): the cytotoxicity at 70.5 h worked out at 3.54%.

Take `Cc1nccn1-c1ccc(C(C)NCc2cc[nH]n2)cc1` (centres undefined): the cytotoxicity at 70.5 h was -0.399%.

As for `O=C(c1cccc(F)c1F)N1CCn2c(nnc2C(F)(F)F)C1`, the cytotoxicity at 70.5 h is -4.83%.

For the compound `CCc1cnc(CN(C)C(C)C(=O)N2CCc3ccccc3C2)s1` (centres undefined), the cytotoxicity at 70.5 h was found to be 0.736%.

Turning to `Cc1nn(C)c(C)c1CCNC(C)c1ccc(-n2ccnc2C)cc1` (centres undefined), the cytotoxicity at 70.5 h is -2.24%.

For `CC(C(=O)N1CCc2ccccc2C1)N(C)Cc1cscn1` (centres undefined), the cytotoxicity at 70.5 h is -4.2%.

As for `COCCCSc1ccc(NCc2cscn2)cc1`, the cytotoxicity at 70.5 h is -2.43%.

Take `O=C(c1ccc(F)cc1Cl)N1CCn2c(nnc2C(F)(F)F)C1`: the cytotoxicity at 70.5 h amounted to 1.4%.

`Cc1nc(CNC(C)c2cccc(S(=O)(=O)N(C)C)c2)no1` (centres undefined): the cytotoxicity at 70.5 h was found to be 16.5%.

Regarding `Cc1nc(CNC(C)c2ccc(S(=O)(=O)N(C)C)cc2)no1` (centres undefined), the cytotoxicity at 70.5 h was -2.76%.

For `Cc1cc(C(=O)NCC2(N(C)C)CCCC2)c(C)n1-c1cccnc1`, the cytotoxicity at 70.5 h is -0.689%.

For the compound `CC(C)CCC(=O)NCc1ccc(N2CCCCC2)cc1`, the cytotoxicity at 70.5 h is -9.32%.

On to `Cc1ccc2ncn(CC(O)CN3CCC(C)CC3)c(=O)c2c1` (centres undefined), for which the cytotoxicity at 70.5 h turned out to be 19.7%.

As for `N#Cc1ccc(NCC(=O)Nc2ccn(Cc3cccnc3)n2)cc1`, the cytotoxicity at 70.5 h is -9.9%.

Regarding `COCC(=O)N1CCN(c2ccc(C(=O)OC)cc2)CC1C` (centres undefined), the cytotoxicity at 70.5 h came out at 20.1%.

For the compound `COCCOCCNC(=O)c1ccc(N2CCC(C)=N2)cc1`, the cytotoxicity at 70.5 h was -3.96%.

As to `N#Cc1ccc(NCC(=O)Nc2ncn(Cc3cccnc3)n2)cc1`, the cytotoxicity at 70.5 h was -6.44%.

As to `N#Cc1cccnc1N[C@@H]1c2ccccc2C[C@@H]1O`, the cytotoxicity at 70.5 h was -16.4%.

For the compound `CCC(CO)NC(=O)NCc1cc(C#N)ccc1F` (centres undefined), the cytotoxicity at 70.5 h was -9.99%.

Take `CC(NC(=O)c1ccnc(C2CC2)n1)C1(N2CCOCC2)CCCC1` (centres undefined): the cytotoxicity at 70.5 h was -4.36%.

As for `Cn1nccc1CNS(=O)(=O)c1cc(F)ccc1Br`, the cytotoxicity at 70.5 h is -6.89%.

In the case of `CCNC(=O)NC(C)c1nc(-c2ccc(Br)cc2)no1` (centres undefined), the cytotoxicity at 70.5 h is -8.74%.

`CNC(=O)NC(C)c1nc(-c2ccc(Br)cc2)no1` (centres undefined): the cytotoxicity at 70.5 h came out at 9.87%.

Take `N#Cc1ccc(C(=O)NCC2(N3CCOCC3)CCCC2)nc1`: the cytotoxicity at 70.5 h was -4.06%.

In the case of `CCCNC(=O)COc1ccc(-c2ccccc2)nc1`, the cytotoxicity at 70.5 h is -5.84%.

In the case of `CCN(CC)c1ncc(CNC2CCc3nc(C(C)C)nn3C2)s1` (centres undefined), the cytotoxicity at 70.5 h was -5.99%.

Turning to `Cc1cccc(CNC(=O)Nc2ccn(CCCC(=O)N(C)C)n2)c1`, the cytotoxicity at 70.5 h is -7.9%.

With `Cc1nc(C(=O)N(C)CC(=O)N(C)C)nn1-c1ccccc1C(C)C`, the cytotoxicity at 70.5 h was 33.6%.

Take `CC(C)(C)c1noc(CCC(=O)N2CCN(Cc3ccc(Cl)s3)CC2)n1`: the cytotoxicity at 70.5 h stood at 25.8%.

In the case of `Cc1c(C(C)NC(=O)C2CCCCC2)cnn1C` (centres undefined), the cytotoxicity at 70.5 h was 5.03%.

With `CN(C)C(=O)Cn1cc(C(=O)NCCc2cccc(Cl)c2Cl)nn1`, the cytotoxicity at 70.5 h stood at 2.52%.

Consider `N#Cc1cccc(CN2C(=O)c3ccccc3CS2(=O)=O)c1`, for which the cytotoxicity at 70.5 h was -2.45%.

`Cc1nc2n(n1)CC(NCc1ccnc(-c3ccccc3)n1)CC2` (centres undefined): the cytotoxicity at 70.5 h is -2.5%.

Turning to `Cc1c(C(=O)NCCN2C(=O)CCC2=O)sc2ccc(F)cc12`, the cytotoxicity at 70.5 h came to 2.84%.

Turning to `CCCS(=O)(=O)NCC(C)(O)c1ccsc1` (centres undefined), the cytotoxicity at 70.5 h is -4.32%.

For `Cn1nc2c(cc1=O)CN(CC(=O)Nc1nccs1)CC2`, the cytotoxicity at 70.5 h was -3.23%.

On to `CN(C)c1ccc(NC(=O)c2ccnn2C)nc1`, for which the cytotoxicity at 70.5 h was determined as 0.439%.

On to `OCC1(NCc2cnc(-c3ccccn3)s2)CCOCC1`, for which the cytotoxicity at 70.5 h was found to be 28%.

Turning to `Cc1ccc(C(=O)Nc2ccc(N(C)C)cn2)n1C`, the cytotoxicity at 70.5 h was 7.03%.

Regarding `COCCN(Cc1cccc(C#N)c1)Cc1nc(C)no1`, the cytotoxicity at 70.5 h turned out to be 28.5%.

For the compound `CC(C)(C)n1ncc2c1CCCC2NCc1ccc2c(c1)CCO2` (centres undefined), the cytotoxicity at 70.5 h was 9.44%.

Take `CC(C)c1nc(CN2CCN(C(=O)Cc3ccccc3Cl)CC2)no1`: the cytotoxicity at 70.5 h is -1.7%.

For the compound `O=C(Nc1nnc(C(F)F)s1)N[C@H](CCO)c1ccccc1`, the cytotoxicity at 70.5 h is 0.703%.

For the compound `CN(C)c1ccc(C(=O)N(CCO)CC2CC2)c(F)c1`, the cytotoxicity at 70.5 h was found to be 30.4%.

As to `Cc1nc(CN2CCN(C(=O)CCc3nc(C(C)(C)C)no3)CC2)cs1`, the cytotoxicity at 70.5 h came to 5.21%.

For `CC(C)(C)n1ncc2c1CCCC2NCc1ccsc1` (centres undefined), the cytotoxicity at 70.5 h was -0.727%.

Regarding `Fc1ccc(CN2CCCCC2Cn2cncn2)c2ncccc12` (centres undefined), the cytotoxicity at 70.5 h is 25.5%.

Turning to `O=S(=O)(NCCCN1CCCC1)c1cc(F)cc(F)c1`, the cytotoxicity at 70.5 h was 27.2%.

On to `Cc1ccc(C(=O)Nc2cc(C(N)=O)ccc2N2CCCCC2)cc1F`, for which the cytotoxicity at 70.5 h was -2.35%.

For the compound `O=C(NC1CCN(Cn2nc(-c3ccccc3)oc2=O)CC1)C1CC1`, the cytotoxicity at 70.5 h is 1.77%.

With `CCCS(=O)(=O)NCc1cccnc1OCc1ccccc1`, the cytotoxicity at 70.5 h is -7.41%.

As for `NC(=O)c1ccc(N2CCCCC2)c(NC(=O)c2ccc(Br)cc2)c1`, the cytotoxicity at 70.5 h was -4.44%.

On to `CC(C)c1ccc(C2(C(=O)NCCS(N)(=O)=O)CCC2)cc1`, for which the cytotoxicity at 70.5 h is -9.09%.

As to `Cc1cc(CN(C)C(=O)C2CCCN(C(N)=O)C2)no1` (centres undefined), the cytotoxicity at 70.5 h is -5.82%.

`COCCNC(=O)Nc1cccc(COCCOC(C)C)c1`: the cytotoxicity at 70.5 h was -6.5%.

In the case of `Fc1ccc(CN2CCCC2Cn2cncn2)c2ncccc12` (centres undefined), the cytotoxicity at 70.5 h was found to be 2.94%.

For the compound `O=C(NC1CCC(C(=O)N2CCSCC2)CC1)N1CCOCC1` (centres undefined), the cytotoxicity at 70.5 h is -5.82%.

For `CN(Cc1cnn(C)c1)C(=O)CN1CCCC1Cn1cncn1` (centres undefined), the cytotoxicity at 70.5 h stood at 21.4%.

As for `CC(C)OCCOCc1cccc(NC(=O)NCC(=O)N(C)C)c1`, the cytotoxicity at 70.5 h is -2.88%.

As for `Cc1cc(C(=O)NC2(c3cccc(F)c3)CCOCC2)no1`, the cytotoxicity at 70.5 h is -7.78%.

`Cc1ccc(S(=O)(=O)NCCCN2CCC(O)CC2)cc1Cl`: the cytotoxicity at 70.5 h turned out to be 4.78%.

`Fc1ccc(CN2CCOC(Cn3cncn3)C2)c2ncccc12` (centres undefined): the cytotoxicity at 70.5 h was -3.84%.

Turning to `CC(C)C1CN(C(=O)c2ccsc2)CCS1` (centres undefined), the cytotoxicity at 70.5 h is -9.62%.

In the case of `Cn1ncnc1CNc1ccc2c(c1)N(C(=O)OC(C)(C)C)CCC2`, the cytotoxicity at 70.5 h is -8.19%.

On to `Clc1cc(CN2CCCC(Cn3cncn3)C2)c2ncccc2c1` (centres undefined), for which the cytotoxicity at 70.5 h was -12.2%.

Consider `Cc1c(Br)cccc1C(=O)NCC1CCCNC1` (centres undefined), for which the cytotoxicity at 70.5 h came to 2.2%.

Turning to `Cc1c(Br)cccc1C(=O)NCC1CCNCC1`, the cytotoxicity at 70.5 h turned out to be 8.92%.

For `Clc1ccc(C2(CNC3=NCCN3)CC2)cc1`, the cytotoxicity at 70.5 h came out at 10%.

On to `Fc1ccc(C2(CNC3=NCCN3)CCCC2)cc1`, for which the cytotoxicity at 70.5 h was determined as 3.33%.
